Experimental data published in ChEMBL document CHEMBL1201862, “PubChem BioAssay data set” (2004).
The source made the active and inactive calls.

Assays:
[1] = target: Peroxisome proliferator-activated receptor gamma/Nuclear receptor coactivator 1 (Homo sapiens, UniProt P37231); format: functional;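 note: agonist potency as compounds enhance coactivator SRC-1 recruitment to PPARgamma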
[2] = target: Peroxisome proliferator-activated receptor gamma/Nuclear receptor coactivator 3 (Homo sapiens, UniProt P37231); format: functional;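 note: agonist potency for raising coactivator recruitment to the receptor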
Sequence of Peroxisome proliferator-activated receptor gamma/Nuclear receptor coactivator 3 (P37231 whole entry): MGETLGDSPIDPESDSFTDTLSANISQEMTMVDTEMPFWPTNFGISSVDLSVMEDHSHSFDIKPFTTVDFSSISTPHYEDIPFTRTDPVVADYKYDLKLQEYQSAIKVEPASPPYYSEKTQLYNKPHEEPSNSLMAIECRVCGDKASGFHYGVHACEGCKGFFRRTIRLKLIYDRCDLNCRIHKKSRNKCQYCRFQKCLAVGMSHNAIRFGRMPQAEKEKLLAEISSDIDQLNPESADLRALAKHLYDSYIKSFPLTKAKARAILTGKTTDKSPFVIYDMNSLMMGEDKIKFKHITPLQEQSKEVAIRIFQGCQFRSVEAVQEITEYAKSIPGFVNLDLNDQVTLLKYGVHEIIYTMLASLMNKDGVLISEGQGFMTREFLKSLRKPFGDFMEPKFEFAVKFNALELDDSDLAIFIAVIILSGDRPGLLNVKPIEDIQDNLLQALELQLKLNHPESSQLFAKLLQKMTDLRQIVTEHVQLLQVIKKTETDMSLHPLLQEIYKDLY
Sequence of Peroxisome proliferator-activated receptor gamma/Nuclear receptor coactivator 3 (Q9Y6Q9 whole entry, further chain): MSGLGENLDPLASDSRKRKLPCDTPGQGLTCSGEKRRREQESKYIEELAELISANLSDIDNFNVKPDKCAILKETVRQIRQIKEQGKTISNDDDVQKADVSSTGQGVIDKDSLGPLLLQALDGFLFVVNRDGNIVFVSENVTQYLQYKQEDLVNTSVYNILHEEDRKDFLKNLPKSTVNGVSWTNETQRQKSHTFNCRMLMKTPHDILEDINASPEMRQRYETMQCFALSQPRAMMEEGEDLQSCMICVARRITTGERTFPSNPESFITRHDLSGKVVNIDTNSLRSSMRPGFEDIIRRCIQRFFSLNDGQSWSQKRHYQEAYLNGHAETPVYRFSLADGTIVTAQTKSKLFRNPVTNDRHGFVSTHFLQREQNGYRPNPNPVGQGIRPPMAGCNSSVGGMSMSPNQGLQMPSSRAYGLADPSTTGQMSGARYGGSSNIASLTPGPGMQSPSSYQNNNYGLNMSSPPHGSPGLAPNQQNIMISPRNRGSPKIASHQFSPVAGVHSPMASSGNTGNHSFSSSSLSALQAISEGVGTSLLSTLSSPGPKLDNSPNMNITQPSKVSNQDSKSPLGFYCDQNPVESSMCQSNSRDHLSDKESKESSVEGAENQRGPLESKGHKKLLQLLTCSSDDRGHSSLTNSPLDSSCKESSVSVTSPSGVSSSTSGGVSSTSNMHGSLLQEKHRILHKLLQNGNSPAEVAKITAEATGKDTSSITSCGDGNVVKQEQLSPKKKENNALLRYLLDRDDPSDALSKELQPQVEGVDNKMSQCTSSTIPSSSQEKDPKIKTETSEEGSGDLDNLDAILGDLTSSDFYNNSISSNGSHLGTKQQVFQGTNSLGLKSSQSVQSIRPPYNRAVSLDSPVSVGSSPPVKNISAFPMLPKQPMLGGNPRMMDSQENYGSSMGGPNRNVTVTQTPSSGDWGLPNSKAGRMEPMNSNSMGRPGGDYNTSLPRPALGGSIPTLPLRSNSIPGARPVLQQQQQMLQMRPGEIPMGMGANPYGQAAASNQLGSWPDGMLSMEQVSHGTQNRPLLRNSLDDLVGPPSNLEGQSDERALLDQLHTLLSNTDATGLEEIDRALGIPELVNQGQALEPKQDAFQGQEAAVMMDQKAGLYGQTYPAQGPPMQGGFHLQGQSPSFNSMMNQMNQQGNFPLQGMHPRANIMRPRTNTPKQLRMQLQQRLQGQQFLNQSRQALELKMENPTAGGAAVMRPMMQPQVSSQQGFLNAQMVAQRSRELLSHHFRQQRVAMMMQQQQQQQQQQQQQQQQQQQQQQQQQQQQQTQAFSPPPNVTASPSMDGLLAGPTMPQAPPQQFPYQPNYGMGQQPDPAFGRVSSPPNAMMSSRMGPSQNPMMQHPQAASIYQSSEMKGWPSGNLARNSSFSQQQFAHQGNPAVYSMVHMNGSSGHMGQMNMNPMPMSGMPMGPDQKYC

[3] = target: Peroxisome proliferator-activated receptor gamma/Nuclear receptor coactivator 2 (Homo sapiens, UniProt P37231); format: functional;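 note: agonist potency for raising coactivator recruitment to the receptor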
[4] = microbe, parasite or virus in culture; format: functional; details: Mycobacterium tuberculosis
[5] = control 3'UTR Renilla luciferase suppression, dose response, counter-screen for Shn3 inhibitor project, cell-based, Clone20-Shn3RL, cherry-picked (AID 624133); format: functional
[6] = growth suppression of beta-catenin-knockout colon cells, dose response, cell-based, HCT116, human colon tumor (AID 1045); format: functional;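 note: HCT116 colon tumor cells with beta catenin knocked out; cells exposed to compound for 60 hours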
[7] = Shn3 3'UTR reporter inhibitors, dose response, cell-based, Clone20 osteoblasts, firefly luciferase, cherry-picked (AID 624132); format: functional;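 note: firefly luciferase luminescence from reporter carrying the Shn3 3'UTR in osteoblasts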
[8] = growth suppression of PTEN-null colon cells, dose response, cell-based, HCT116 PTEN knockout (AID 1047); format: functional;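 note: HCT116 colon tumor cells with PTEN knocked out; cells exposed to compound for 60 hours before readout; potency for loss of cell viability measured by luminescence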
[9] = Luminescence Cell-Based Dose Retest to Confirm Inhibitors of Cancer Stem Cells. [Related pubchem assays (depositor defined):AID2717, AID2721]; format: functional; details: Homo sapiens
[10] = system: INS1; test: beta cell apoptosis inhibitors, cytokine rescue, dose response, luminescence, retest (AID 449756); format: functional, cell-based; details: Rattus norvegicus;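 note: cell death triggered by IL-1 beta plus TNF-alpha plus IFN-gamma mixture; protective hits raise ATP signal compared with cytokine alone wells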
[11] = HepG2 cell cytotoxicity, dose response, cytotoxicity control for Shn3 inhibitor project, CellTiter-Glo, cherry-picked (AID 624134); format: functional, cell-based
[12] = target: Induced myeloid leukemia cell differentiation protein Mcl-1 (Homo sapiens, UniProt Q07820); format: functional
Sequence of Induced myeloid leukemia cell differentiation protein Mcl-1 (Q07820 whole entry): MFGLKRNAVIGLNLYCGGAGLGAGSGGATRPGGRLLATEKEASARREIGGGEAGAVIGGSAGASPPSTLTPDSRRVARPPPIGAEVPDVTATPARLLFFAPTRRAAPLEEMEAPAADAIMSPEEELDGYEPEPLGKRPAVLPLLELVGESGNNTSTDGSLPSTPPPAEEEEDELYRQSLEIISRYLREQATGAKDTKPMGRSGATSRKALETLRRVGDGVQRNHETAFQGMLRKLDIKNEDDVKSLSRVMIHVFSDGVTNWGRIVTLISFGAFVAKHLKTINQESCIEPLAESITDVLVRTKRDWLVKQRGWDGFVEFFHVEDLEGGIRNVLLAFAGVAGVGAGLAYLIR

[13] = target: Eukaryotic translation initiation factor 4E (Mus musculus, UniProt P63073); test: eIF4E–eIF4G protein interaction inhibitors, dose response, biochemical, TR-FRET (AID 855); format: functional;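 note: potency for disrupting eIF4E binding to eIF4GI seen as loss of FRET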
Sequence of Eukaryotic translation initiation factor 4E (P63073 whole entry): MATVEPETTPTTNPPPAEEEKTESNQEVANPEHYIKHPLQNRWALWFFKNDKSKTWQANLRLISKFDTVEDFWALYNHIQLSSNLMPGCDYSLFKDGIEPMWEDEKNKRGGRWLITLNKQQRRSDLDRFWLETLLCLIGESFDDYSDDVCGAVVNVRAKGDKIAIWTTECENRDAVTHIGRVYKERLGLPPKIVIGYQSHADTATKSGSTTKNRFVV

[14] = A cytotoxicity screen of small molecule inhibitors of the PhoP region in Salmonella typhi identified in the primary screen. [Related pubchem assays: 1850, 1864, 1985 ]; format: functional
[15] = target: T1, Polyadenylate-binding protein 1 (Homo sapiens, UniProt P11940); test: PABP1 MLLE–PAM2 binding inhibitor potency, dose response, biochemical, fluorescence polarization, FITC-PAM2 peptide (AID 602259); format: functional; details: read-out: IC50_Mean
T1 sequence (P11940 whole entry): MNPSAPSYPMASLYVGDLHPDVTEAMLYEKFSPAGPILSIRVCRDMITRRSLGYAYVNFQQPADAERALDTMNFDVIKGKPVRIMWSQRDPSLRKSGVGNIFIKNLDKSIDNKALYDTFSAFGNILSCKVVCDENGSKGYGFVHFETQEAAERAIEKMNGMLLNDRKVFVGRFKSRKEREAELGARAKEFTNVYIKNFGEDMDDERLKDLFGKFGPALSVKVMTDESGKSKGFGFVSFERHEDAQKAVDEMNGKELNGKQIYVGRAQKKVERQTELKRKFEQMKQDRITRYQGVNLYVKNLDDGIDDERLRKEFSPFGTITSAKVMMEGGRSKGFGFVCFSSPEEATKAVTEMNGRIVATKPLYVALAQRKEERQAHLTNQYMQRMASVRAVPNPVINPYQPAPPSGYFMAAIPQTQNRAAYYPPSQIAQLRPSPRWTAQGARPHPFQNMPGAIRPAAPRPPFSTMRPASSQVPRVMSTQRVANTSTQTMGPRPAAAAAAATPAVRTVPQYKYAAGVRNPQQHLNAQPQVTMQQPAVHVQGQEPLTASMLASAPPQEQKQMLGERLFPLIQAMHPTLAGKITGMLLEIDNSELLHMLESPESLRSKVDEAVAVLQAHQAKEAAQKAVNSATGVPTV

[16] = target: T1, Polyadenylate-binding protein 1; test: PABP1 MLLE–PAM2 interaction inhibitors, dose response, miRNA deadenylation inhibitor project, biochemical, fluorescence polarization, Cy5-PAM2 peptide, secondary (AID 602260); format: functional; details: read-out: IC50_Mean
[17] = target: T2, RNA-binding protein pos-1 (Caenorhabditis elegans, UniProt G5EF15); test: inhibitors of POS-1/mex-3 RNA binding, dose response, biochemical, fluorescence polarization (AID 1964);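 note: purified POS-1 fused to maltose binding protein made in E. coli; potency of compounds blocking POS-1 binding to fluorescent RNA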
T2 sequence (G5EF15 whole entry): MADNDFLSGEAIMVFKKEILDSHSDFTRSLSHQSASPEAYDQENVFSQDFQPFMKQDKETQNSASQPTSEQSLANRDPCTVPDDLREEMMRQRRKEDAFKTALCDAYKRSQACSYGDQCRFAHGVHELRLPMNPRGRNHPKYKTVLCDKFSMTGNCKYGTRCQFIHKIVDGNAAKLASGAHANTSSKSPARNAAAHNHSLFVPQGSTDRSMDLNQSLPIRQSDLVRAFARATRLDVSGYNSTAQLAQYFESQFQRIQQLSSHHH

[18] = target: T3, Zinc finger protein mex-5 (Caenorhabditis elegans, UniProt Q9XUB2); test: MEX-5/TCR-2 RNA interaction inhibitors, dose response, biochemical, C. elegans, fluorescence polarization (AID 1960)
T3 sequence (Q9XUB2 whole entry): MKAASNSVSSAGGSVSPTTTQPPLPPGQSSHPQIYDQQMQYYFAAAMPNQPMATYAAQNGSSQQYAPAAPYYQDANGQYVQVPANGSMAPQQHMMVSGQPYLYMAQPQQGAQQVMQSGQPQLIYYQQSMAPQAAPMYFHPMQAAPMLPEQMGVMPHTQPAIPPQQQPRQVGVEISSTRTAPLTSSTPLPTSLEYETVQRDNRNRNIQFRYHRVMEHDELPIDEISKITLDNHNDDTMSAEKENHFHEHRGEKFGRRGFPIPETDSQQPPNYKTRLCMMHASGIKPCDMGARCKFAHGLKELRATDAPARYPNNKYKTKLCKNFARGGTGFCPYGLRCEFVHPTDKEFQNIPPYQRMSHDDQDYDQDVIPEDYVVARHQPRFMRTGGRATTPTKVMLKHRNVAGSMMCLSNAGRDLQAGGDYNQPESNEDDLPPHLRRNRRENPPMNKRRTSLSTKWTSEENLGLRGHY

[19] = target: T4, Endoribonuclease toxin MazF (Escherichia coli K-12, UniProt P0AE70); test: MazF toxin RNase activators, dose response, biochemical, fluorescence, single-stranded RNA substrate, uHTS hits (AID 588481); format: functional
T4 sequence (P0AE70 whole entry): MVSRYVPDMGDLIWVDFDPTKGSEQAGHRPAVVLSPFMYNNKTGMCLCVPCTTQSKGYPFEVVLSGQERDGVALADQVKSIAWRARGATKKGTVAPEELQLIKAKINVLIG

[20] = target: T4, Endoribonuclease toxin MazF; test: fluorescent RNA oligo signal without MazF, dose response, counter-screen for MazEF activator project, biochemical, fluorescence, single-stranded RNase substrate (AID 588502); format: functional
[21] = target: T5, Cytochrome P450 1A2 (Homo sapiens, UniProt P05177);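 note: PubChem cytochrome P450 panel assay, CYP1A2 panel member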
T5 sequence (P05177 whole entry): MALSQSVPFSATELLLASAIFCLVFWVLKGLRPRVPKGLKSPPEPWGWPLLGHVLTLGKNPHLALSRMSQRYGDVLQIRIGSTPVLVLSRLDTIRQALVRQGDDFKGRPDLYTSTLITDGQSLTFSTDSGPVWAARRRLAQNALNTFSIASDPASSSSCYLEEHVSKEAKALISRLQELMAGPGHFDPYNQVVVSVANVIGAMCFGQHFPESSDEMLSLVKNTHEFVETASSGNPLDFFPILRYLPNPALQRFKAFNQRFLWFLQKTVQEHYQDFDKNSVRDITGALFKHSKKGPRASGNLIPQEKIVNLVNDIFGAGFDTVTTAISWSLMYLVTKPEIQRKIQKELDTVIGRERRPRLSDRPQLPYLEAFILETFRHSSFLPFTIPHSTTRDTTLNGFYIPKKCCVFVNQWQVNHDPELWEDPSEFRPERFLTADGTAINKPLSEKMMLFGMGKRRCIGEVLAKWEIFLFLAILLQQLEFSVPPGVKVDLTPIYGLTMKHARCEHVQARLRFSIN

[22] = target: Cytochrome P450 2C19 (Homo sapiens, UniProt P33261); test: Cytochrome panel assay with activity outcomes. Panel member name: p450-cyp2c19 Compounds with AC50 equal or less than 10 uM are considered active; format: functional; details: read-out: AC50
[23] = target: Cytochrome P450 3A4 (Homo sapiens, UniProt P08684);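 note: CYP3A4 tested as one member of a cytochrome P450 panel screen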
[24] = target: T6, Heat shock factor protein 1 (Mus musculus, UniProt P38532); test: inhibition of MG132-induced HSE-luciferase signal, confirmation, cell-based, NIH3T3, luminescence, dose retest (AID 2382); format: functional;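 note: NIH3T3 fibroblasts with HSF1-driven luciferase reporter stressed by proteasome inhibitor MG132; luminescence from HSF1-driven luciferase expression after 8 hours of MG132 stress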
T6 sequence (P38532 whole entry): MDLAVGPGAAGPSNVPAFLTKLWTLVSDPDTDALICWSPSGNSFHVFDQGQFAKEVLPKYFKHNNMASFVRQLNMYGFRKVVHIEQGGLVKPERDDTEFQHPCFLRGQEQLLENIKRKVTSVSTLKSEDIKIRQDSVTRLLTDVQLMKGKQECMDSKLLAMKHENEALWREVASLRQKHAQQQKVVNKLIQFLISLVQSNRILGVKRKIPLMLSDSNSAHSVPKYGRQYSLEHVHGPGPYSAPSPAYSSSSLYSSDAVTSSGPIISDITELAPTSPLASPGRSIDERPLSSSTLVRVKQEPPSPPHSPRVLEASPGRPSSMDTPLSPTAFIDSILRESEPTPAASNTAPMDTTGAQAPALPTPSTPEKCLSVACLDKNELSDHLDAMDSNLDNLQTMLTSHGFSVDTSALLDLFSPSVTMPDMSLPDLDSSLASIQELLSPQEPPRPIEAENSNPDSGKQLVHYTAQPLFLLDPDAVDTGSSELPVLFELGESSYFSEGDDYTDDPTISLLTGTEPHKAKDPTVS

Sequence of Peroxisome proliferator-activated receptor gamma/Nuclear receptor coactivator 1 (P37231 whole entry): as the sequence (P37231 whole entry) above
Sequence of Peroxisome proliferator-activated receptor gamma/Nuclear receptor coactivator 1 (Q15788 whole entry, further chain): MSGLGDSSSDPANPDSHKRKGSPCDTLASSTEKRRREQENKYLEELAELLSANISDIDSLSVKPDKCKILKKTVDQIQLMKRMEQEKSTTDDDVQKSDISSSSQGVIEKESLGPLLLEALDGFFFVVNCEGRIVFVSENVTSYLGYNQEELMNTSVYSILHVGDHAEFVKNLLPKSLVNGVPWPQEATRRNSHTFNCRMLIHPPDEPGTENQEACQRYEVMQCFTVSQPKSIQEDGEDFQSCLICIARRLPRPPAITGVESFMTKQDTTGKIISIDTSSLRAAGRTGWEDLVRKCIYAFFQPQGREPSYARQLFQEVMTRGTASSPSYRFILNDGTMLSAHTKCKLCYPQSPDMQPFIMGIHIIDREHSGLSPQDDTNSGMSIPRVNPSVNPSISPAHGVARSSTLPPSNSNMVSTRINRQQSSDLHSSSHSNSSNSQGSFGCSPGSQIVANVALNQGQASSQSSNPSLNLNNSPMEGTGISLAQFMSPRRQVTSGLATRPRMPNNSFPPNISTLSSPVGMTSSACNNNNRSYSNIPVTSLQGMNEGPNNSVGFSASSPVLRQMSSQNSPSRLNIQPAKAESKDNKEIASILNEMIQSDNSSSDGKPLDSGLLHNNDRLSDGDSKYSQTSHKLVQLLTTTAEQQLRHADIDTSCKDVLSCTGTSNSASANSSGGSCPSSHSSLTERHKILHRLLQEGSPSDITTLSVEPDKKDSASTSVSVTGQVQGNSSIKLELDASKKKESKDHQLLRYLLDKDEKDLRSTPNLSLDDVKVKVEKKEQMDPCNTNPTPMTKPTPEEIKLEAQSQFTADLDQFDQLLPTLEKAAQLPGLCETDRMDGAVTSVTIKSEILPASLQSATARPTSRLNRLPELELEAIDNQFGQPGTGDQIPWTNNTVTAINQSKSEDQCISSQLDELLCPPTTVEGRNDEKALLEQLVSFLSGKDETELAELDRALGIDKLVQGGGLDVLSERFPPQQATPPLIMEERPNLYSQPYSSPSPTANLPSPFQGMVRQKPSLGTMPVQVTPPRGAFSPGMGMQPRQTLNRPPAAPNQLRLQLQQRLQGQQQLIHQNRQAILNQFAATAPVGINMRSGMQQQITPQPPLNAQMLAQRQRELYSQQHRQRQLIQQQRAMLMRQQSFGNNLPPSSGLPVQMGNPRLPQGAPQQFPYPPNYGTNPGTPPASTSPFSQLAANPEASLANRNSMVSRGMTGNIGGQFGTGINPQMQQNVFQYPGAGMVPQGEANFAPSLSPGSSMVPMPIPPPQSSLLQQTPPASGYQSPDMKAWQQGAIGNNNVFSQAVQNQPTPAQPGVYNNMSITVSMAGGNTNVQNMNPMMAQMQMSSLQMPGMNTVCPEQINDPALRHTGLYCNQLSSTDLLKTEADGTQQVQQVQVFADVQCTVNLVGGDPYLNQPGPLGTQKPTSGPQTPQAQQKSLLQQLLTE

c1cncc(CNC2CCCC2)c1
EC50 [1]: > 79.4 µM (not active)
EC50 [2]: > 79.4 µM (not active)
EC50 [3]: > 79.4 µM (not active)

CCCCCc1nc2c(c(=O)c3ccccc3n2C)c(=O)n1C1CCCCCC1
CC50 [4]: 10.4 µM (active)
AC50 [5]: 5.56 µM (active)
EC50 [6]: 6.38 µM (active)
AC50 [7]: 8.21 µM (active)
EC50 [8]: 7.59 µM (active)
AC50 [9]: 3.56 µM (active)
AC50 [10]: 7.76 µM (active)
AC50 [11]: 42.3 µM (active)

Cc1cc(C(F)F)n2nc(C(=O)Nc3sc4c(c3C(N)=O)CCC4)nc2n1
IC50 [12]: 40 µM (active)

Cc1ccc(CSc2nc3c(cc2C#N)CCC3)cc1
EC50 [1]: 42.7 µM (not active)
EC50 [2]: 47.6 µM (not active)
EC50 [3]: 28.5 µM (not active)

Cn1c(=O)c2c(ncn2CCNC2=NCCCCC2)n(C)c1=O
EC50 [1]: > 79.4 µM (not active)
EC50 [2]: > 79.4 µM (not active)
EC50 [3]: > 79.4 µM (not active)

Cn1cccc1-c1nc2cc(NC(=O)c3ccccc3)ccc2[nH]1
EC50 [1]: > 79.4 µM (not active)
EC50 [2]: > 79.4 µM (not active)
EC50 [3]: > 79.4 µM (not active)

CCCCOC(=O)Nc1nnc(SCCOc2ccc(C)cc2)s1
IC50 [13]: > 64 µM (inactive)

Cc1ccc(C23CC4CC(CC(CN)(C4)C2)C3)cc1
IC50 [13]: 50 µM (inactive)

Cc1[nH]c2ccc(C(=O)Nc3ccncc3)cc2c1C
EC50 [14]: > 50 µM (active)

O=C(Nc1ccc(F)cc1)C1CCC(CNc2c(N3CCCCC3)c(=O)c2=O)CC1 (stereo not given)
EC50 [14]: > 50 µM (active)

CCCN(CC(=O)Nc1ccccc1C)C(=O)COC(=O)CSc1ccc([N+](=O)[O-])cc1
IC50 [15]: > 66 µM (inactive)
IC50 [16]: > 66 µM (inactive)

N#CC(C(=O)NCc1ccccc1)c1nc2ccccc2nc1N1CCCC1 (stereo not given)
EC50 [17]: > 300 µM (inconclusive)
EC50 [18]: > 300 µM (inconclusive)
EC50 [19]: 4.64 µM (active)
EC50 [20]: > 99 µM (inactive)

O=C(CN1C(=O)/C(=C2\SC(=S)N(C3CCS(=O)(=O)C3)C2=O)c2ccccc21)Nc1ccc(F)cc1 (stereo not given)
IC50 [12]: 3.55 µM (active)

C=CCN1C(=O)/C(=C2/Sc3ccccc3N2CC)SC1=S
EC50 [17]: 16.1 µM (active)
EC50 [18]: 9.69 µM (active)
EC50 [19]: > 99 µM (inactive)
EC50 [20]: 56.1 µM (inactive)

Cc1cc(NC(=O)c2ccc3[nH]c(C)c(C)c3c2)ccn1
EC50 [14]: > 50 µM (active)

CCc1nc2ccc(C(=O)Nc3nnc(C)s3)cc2nc1CC
EC50 [1]: > 79.4 µM (not active)
EC50 [2]: > 79.4 µM (not active)
EC50 [3]: > 79.4 µM (not active)

O=C(Nc1ccc(S(=O)(=O)N2CCCC2)cc1)c1cccnc1
EC50 [14]: > 50 µM (active)

CC12CC3(C)CC(C)(C1)CC(C(=O)NC(=S)N1CCCC1)(C2)C3
IC50 [13]: 50 µM (inactive)

O=C(COc1ccc2ccccc2c1)NNC(=O)Cc1ccccc1
EC50 [1]: 6.07 µM (active)
EC50 [2]: 6.57 µM (active)
EC50 [3]: 5.17 µM (active)

CC(C)C(=O)N1C2CCC1CC(O)(c1ccc(F)cc1)C2 (stereo not given)
AC50 [21]: 17.8 µM (inconclusive)
EC50 [1]: > 79.4 µM (not active)
AC50 [22]: 20 µM (inconclusive)
EC50 [2]: > 79.4 µM (not active)
EC50 [3]: > 79.4 µM (not active)
AC50 [23]: 22.4 µM (inconclusive)

Cc1ccc(NC(=O)c2ccccc2)s1
EC50 [14]: > 50 µM (active)

COC(=O)c1cc(NC(S)=Nc2cc(Cl)cc(Cl)c2)cc(C(=O)OC)c1
IC50 [15]: > 66 µM (inactive)
IC50 [16]: > 66 µM (inactive)

O=C1c2ccccc2NC(c2cccc([N+](=O)[O-])c2)N1CCc1ccccc1 (stereo not given)
EC50 [14]: > 50 µM (active)

Cc1nc2scc(C)n2c(=O)c1S(=O)(=O)N1CCN(c2cccc(C(F)(F)F)c2)CC1
EC50 [24]: > 195 µM (not active)
EC50 [14]: > 50 µM (active)

Cc1cccc(NC(=O)Cn2cc(C(=O)C3CC3)c3ccccc32)c1C
AC50 [5]: 3.05 µM (active)
AC50 [7]: 2.39 µM (active)
AC50 [11]: 66 µM (active)
